Read-outs that look alike come from different tables or passages of the source.
Tests used:
bacteria = test: Non-food contact sanitizing test, summary (organism not named); format: cell-based; conditions: Table 13; composition including the named antimicrobial agent
Procedure: The composition produced greater than 3 log10 reduction of bacteria within a 5 minute contact time.
A summary of sanitizing efficacy in a non-food contact sanitizing test is shown below in Table 11 below. All testing was performed in 500 ppm synthetic hard water with a five minute exposure time. Microbiological testing was performed according to known methods, certain of which included EPA efficacy data requirements from DIS/TSS-10.
(§1) A summary of stability and sanitizing efficacy for these compositions including an amine antimicrobial agent is shown below in Table 13. This table also includes, for comparison, results for compositions including other types of antimicrobial agents.

[1] = Physical stability of compositions; format: physicochemical
Excerpt: as §1

lipase = test: Enzyme stability testing (Lipolase activity); format: biochemical; conditions: Table 13; composition including the named antimicrobial agent
Procedure: The pH of Formula 3 was lowered to 7. Formulas 4 and 5 maintained enzyme stability at 40 C for at least 30 days. Formula 3 maintained enzyme stability at 40 C for 30 days, but dropped thereafter. Enzyme stability testing was performed according to the manufacturers specifications (e.g., Novozymes LUNA #2000-10340-01 “Manual Procedure for Determination of Lipolase Activity in Enzyme Preparations and Detergents”. )

[2] = Table 13, composition including the named antimicrobial agent

Row | Compound | Antimicrobial Activity (bacteria) | Physical Stability [1, 2] | Enzyme Stability (lipase) | Physical Stability [1]
1 | CCCCCCCCCC[N+](C)(C)CCCCCCCCCC.[Cl-] [Bardac 2250, didecyl dimethyl ammonium chloride] | 3 log reduction | – | – | –
2 | O=C([O-])CNCO.[Na+] [Integra 44, Hydroxymethylglycinate] | none | yes | – | –
3 | CCCCCCCCCCCCN(CCCN)CCCN [Lonzabac 12.30, bis (3-aminopropyl)dodecylamine] | 4.5 log reduction | yes | yes | –
4 | Cc1cc(O)cc(C)c1Cl [PCMX, Chloroxylenol, reference compound] | – | yes | – | –
5 | Oc1cccc(O)c1 [Resorcinol, 1,3-benzenediol, reference compound] | – | yes | – | –
6 | Dodecyl/tetradecyloxypropyl-1,3-diaminopropane [DA 1618] | 4.8 log reduction | yes | yes | –
7 | cocodiaminopropane [Duomeen CD] | 2.5 log reduction | yes | yes | –
8 | isotridecyloxypropyl-1,3-diaminopropane [DA-17] | 4 log reduction | – | yes | yes
9 | linear alkyloxypropyl amine [PA-19] | 4 log reduction | yes | yes | –
10 | polyhexymethylene biguanide [Vantocil] | – | yes | – | –

Reference: patent publication US8211849B2, “Stable antimicrobial compositions including spore, bacteria, fungi and/or enzyme” (priority 2005, dated 2012)
